Measured values: the supplement of paper PMC10307832

Tests used:
Assay in all cases: relative viability (nuclei count vs DMSO), 5 days (fraction); higher = more cells survive
[1] = compound: C1CNCCC1C2=CC(=NN2)C3=CC=NC=C3 + CS(=O)(=O)N1CCN(Cc2cc3nc(-c4cccc5[nH]ncc45)nc(N4CCOCC4)c3s2)CC1 [Pictilisib] (partner 1 µM)
Method in brief: (§1)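 Relative viability was taken as the ratio of nuclei in treated wells to nuclei in vehicle wells. Lung cancer cell lines in 1536-well plates received compounds by pin tool one day after seeding, either one drug alone or a fixed anchor-drug dose plus five library-drug doses (not always all listed) in √10 steps. Nuclei were counted on 4× images after 5 days of treatment, and values are medians of duplicate plates.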

[2] = compound: C[C@@H](N)c1ccc(C(=O)Nc2ccnc3[nH]ccc23)cc1 + CS(=O)(=O)CCNCc1ccc(-c2ccc3ncnc(Nc4ccc(OCc5cccc(F)c5)c(Cl)c4)c3c2)o1 [Lapatinib] (partner 2 µM)
Method in brief: as §1

Tanzisertib + Navitoclax = compound: O[C@H]1CC[C@H](Nc2ncc3nc(Nc4c(F)cc(F)cc4F)n([C@H]4CCOC4)c3n2)CC1 [Tanzisertib] + CC1(C)CCC(c2ccc(Cl)cc2)=C(CN2CCN(c3ccc(C(=O)NS(=O)(=O)c4ccc(N[C@H](CCN5CCOCC5)CSc5ccccc5)c(S(=O)(=O)C(F)(F)F)c4)cc3)CC2)C1 [Navitoclax] (partner 0.5 µM)
Method in brief: as §1

Tanzisertib + Linsitinib = compound: O[C@H]1CC[C@H](Nc2ncc3nc(Nc4c(F)cc(F)cc4F)n([C@H]4CCOC4)c3n2)CC1 [Tanzisertib] + C[C@]1(O)C[C@@H](c2nc(-c3ccc4ccc(-c5ccccc5)nc4c3)c3c(N)nccn32)C1 [Linsitinib] (partner 1 µM)
Method in brief: as §1

| Cell Line | relative viability ([1]; first compound 0.08 µM) | relative viability ([1]; first compound 0.8 µM) | relative viability ([1]; first compound 2.53 µM) | relative viability ([1]; first compound 8 µM) | relative viability ([2]; first compound 0.04 µM) | relative viability ([2]; first compound 0.1265 µM) | relative viability ([2]; first compound 0.4 µM) | relative viability ([2]; first compound 4 µM) | relative viability (Tanzisertib + Navitoclax; first compound 0.08 µM) | relative viability (Tanzisertib + Navitoclax; first compound 0.253 µM) | relative viability (Tanzisertib + Navitoclax; first compound 0.8 µM) | relative viability (Tanzisertib + Navitoclax; first compound 2.53 µM) | relative viability (Tanzisertib + Navitoclax; first compound 8 µM) | relative viability (Tanzisertib + Linsitinib; first compound 0.08 µM) | relative viability (Tanzisertib + Linsitinib; first compound 0.253 µM) | relative viability (Tanzisertib + Linsitinib; first compound 0.8 µM) | relative viability (Tanzisertib + Linsitinib; first compound 2.53 µM) | relative viability (Tanzisertib + Linsitinib; first compound 8 µM) | relative viability ([2]; first compound 1.265 µM) |
| --- | --- | --- | --- | --- | --- | --- | --- | --- | --- | --- | --- | --- | --- | --- | --- | --- | --- | --- | --- |
| NCI-H322M | 0.423 | 0.482 | 0.523 | 0.479 | 0.807 | 0.63 | 0.665 | 0.824 | 1.34 | 1.12 | 1.11 | 1.16 | 1.16 | 1 | 0.891 | 0.795 | 0.88 | 1.02 | – |
| NCI-H2228 | 0.388 | 0.483 | 0.409 | 0.544 | 1.18 | 1.09 | 1.2 | 0.868 | 0.985 | 1.06 | 1.07 | 1.04 | 0.742 | 0.877 | 0.691 | 0.573 | 0.553 | 0.509 | 1.17 |
| NCI-H1395 | 0.837 | 0.535 | 0.677 | 0.785 | 0.935 | 1.2 | 0.954 | 0.941 | 1.05 | 1.27 | 1.43 | 1.1 | 1.01 | 1.32 | 0.956 | 1.08 | 1.04 | 1.05 | – |
| NCI-H520 | 0.277 | 0.324 | 0.293 | 0.351 | 1.08 | 0.953 | 0.949 | 1.03 | 1.12 | 1.1 | 1.1 | 1.01 | 1.11 | 1.19 | 1.11 | 0.941 | 0.832 | 0.927 | 0.742 |
